Reference: ChEMBL document CHEMBL2384979, “Synthesis of the (1→6)-linked thiodisaccharide of galactofuranose: inhibitory activity against a β-galactofuranosidase” (Bioorg Med Chem, 2013)

What was measured:
[1] = Competitive inhibition of Penicillium fellutanum exo-beta-galactofuranosidase assessed as 4-Nitrophenyl beta-D-galactofuranoside conversion to 4-nitrophenol after 1.5 hrs by Lineweaver-Burk plot analysis
[2] = Inhibition of Penicillium fellutanum exo-beta-galactofuranosidase assessed as 4-Nitrophenyl beta-D-galactofuranoside conversion to 4-nitrophenol after 1.5 hrs by spectrophotometric analysis

| Ki [1] | IC50 [2] | SMILES |
| --- | --- | --- |
| 100 µM |  | O=C1O[C@@H]([C@H](O)CO)[C@H](O)[C@H]1O |
|  | 80 µM | Nc1ccc(S[C@@H]2O[C@@H]([C@H](O)CO)[C@H](O)[C@H]2O)cc1 |
|  | 600 µM | O=[N+]([O-])c1ccc(S[C@@H]2O[C@@H]([C@H](O)CO)[C@H](O)[C@H]2O)cc1 |
| 3620 µM |  | CO[C@@H]1O[C@@H]([C@H](O)CS[C@@H]2O[C@@H]([C@H](O)CO)[C@H](O)[C@H]2O)[C@H](O)[C@H]1O |
